A short description of test [1]: (§1) Induction of calcium mobilization in sea urchin egg by fluorometry. In kind it is functional, Hemicentrotus pulcherrimus.
Test [2] deals with Hemicentrotus pulcherrimus. Described as §1. In kind it is functional.

Structures are written as SMILES.

By EC50 is commonly meant the midpoint of the concentration-response curve. `[N-]=[N+]=NCC[C@]12COP(=O)(O)OP(=O)([O-])OC[C@H]3O[C@H]([C@H](O)[C@@H]3O)n3cnc4c(N)[n+](cnc43)[C@H](C1)[C@H](O)[C@@H]2O`: the EC50 in test [1] was 24 nM.

Consider `Nc1c2ncn3c2nc[n+]1[C@@H]1O[C@H](COP(=O)([O-])OP(=O)(O)OC[C@H]2O[C@@H]3[C@H](O)[C@@H]2O)[C@@H](O)[C@H]1O`, for which, in test [2], the Activity entry was “Dose-dependent effect”. For the same compound, the EC50 in test [1] was 213 nM.

On to `Nc1c2ncn3c2nc[n+]1[C@@H]1C[C@H](COP(=O)([O-])OP(=O)(O)OC[C@H]2O[C@@H]3[C@H](O)[C@@H]2O)[C@@H](O)[C@H]1O`, for which the half-maximal effective concentration (EC50) in test [1] is 54 nM.

Source of the values: ChEMBL document CHEMBL4425141, “Design, Synthesis, and Identification of 4″α-Azidoethyl-cyclic ADP-Carbocyclic-ribose as a Highly Potent Analogue of Cyclic ADP-Ribose, a Ca(2+)-Mobilizing Second Messenger” (J Med Chem, 2016).
